Measured values taken from patent US10881698B2, “Diagnosis and treatment for respiratory tract diseases” (THE TRUSTEES OF THE UNIVERSITY OF PENNSYLVANIA, priority 2012, dated 2021).
Substitutions are numbered along the chain they refer to.

What was measured:
beta-defensin 2 = test: Beta-defensin 2 secretion by sinonasal cultures; assay type: cell-based, human
Pseudomonas aeruginosa = test: Kill assay with ASL from stimulated sinonasal ALI cultures (CFU plating); assay type: cell-based; conditions: for Growth of bacteria mixed with ASL from stimulated cultures: 10 mM denatonium, 300 μM absinthin, Pseudomonas aeruginosa; for Effect of solutions alone on growth: no ASL, Pseudomonas
[1] = tested on: Methicillin-resistant Staphylococcus aureus (MRSA); test: as above; assay type: cell-based; conditions: for Growth of bacteria mixed with ASL from stimulated cultures: 10 mM denatonium, 300 μM absinthin; for Effect of solutions alone on growth: no ASL
Kleibsiella pneumoniae = test: Bactericidal effect of ASL from treated nasal cultures; assay type: cell-based; conditions: 10 mM denatonium or 300 μM absinthin
PAV-TAS2R38 = target: T1, PAV-TAS2R38 (Homo sapiens, UniProt P59533, A49P/I296V); test: Fluo-4 calcium mobilization in HEK293 cells expressing hTAS2R38 (PAV) and Gα16gustducin44; assay type: cell-based; conditions: 1 mM agonist; PAV variant
T1 construct: first 45 amino acids of rat SSTR-3 (N); host or cells: HEK293 (peakRapid), transient transfection, pcDNA3.1(+)
T1 sequence (P59533 1-333 A49P/I296V): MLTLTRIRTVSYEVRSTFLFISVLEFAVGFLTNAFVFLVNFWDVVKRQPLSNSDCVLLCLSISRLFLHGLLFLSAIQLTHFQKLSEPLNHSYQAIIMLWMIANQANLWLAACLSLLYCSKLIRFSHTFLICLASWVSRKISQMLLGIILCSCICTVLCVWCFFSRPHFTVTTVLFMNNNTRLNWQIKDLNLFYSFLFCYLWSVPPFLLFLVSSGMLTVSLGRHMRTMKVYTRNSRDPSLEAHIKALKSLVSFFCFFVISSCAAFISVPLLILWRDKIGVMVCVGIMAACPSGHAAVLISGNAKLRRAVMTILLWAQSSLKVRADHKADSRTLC

AVI-TAS2R38 = target: T2, AVI-TAS2R38 (Homo sapiens, UniProt P59533, A262V); test: Fluo-4 calcium mobilization in HEK293 cells expressing hTAS2R38 (AVI) and Gα16gustducin44; assay type: cell-based; conditions: 1 mM agonist; AVI variant
T2 construct: first 45 amino acids of rat SSTR-3 (N); host or cells: HEK293 (peakRapid), transient transfection, pcDNA3.1(+)
T2 sequence (P59533 1-333 A262V): T1 sequence (P59533 1-333 A49P/I296V) with P49A, A262V, V296I

nasal epithelial cells = test: Fluo-4 calcium signaling with denatonium in nasal epithelial cells (sinonasal ALI cultures); assay type: cell-based, human; conditions: 0.1-20 mM denatonium
T2R38 [2] = target: T3, T2R38 (Homo sapiens, UniProt P59533, A49P/I296V); test: DAF-FM imaging of NO production in human sinonasal ALI cultures; assay type: cell-based; conditions: thujone 5 mM, denatonium 10 mM; PAV/PAV cultures
T3 construct: T2R38 is expressed in human upper airway epithelium; endogenous in cells; host or cells: primary human sinonasal epithelial cells, air-liquid interface cultures from surgical patients
T3 sequence (P59533 1-333 A49P/I296V): T1 sequence (P59533 1-333 A49P/I296V)

[3] = tested on: acutely dissociated sinonasal ciliated epithelial cells; test: Ca2+ and DAF-FM responses in acutely dissociated sinonasal ciliated cells; assay type: cell-based, human
T2R38 [4] = test: Fluo-4 Ca2+ imaging in primary human sinonasal ALI cultures; assay type: cell-based; conditions: 1 mM PTC; PAV/AVI cultures
T2R38 [5] = target: T3, T2R38; test: as above; assay type: cell-based; conditions: 1 mM PTC; PAV/PAV cultures
T2R38 [6] = target: T4, T2R38 (Homo sapiens, UniProt P59533, A262V); test: as above; assay type: cell-based; conditions: 1 mM PTC; AVI/AVI cultures
T4 construct: T2R38 is expressed in human upper airway epithelium; endogenous in cells; host or cells: primary human sinonasal epithelial cells, air-liquid interface cultures from surgical patients
T4 sequence (P59533 1-333 A262V): T1 sequence (P59533 1-333 A49P/I296V) with P49A, A262V, V296I

T2R38 [7] = target: T3, T2R38; test: DAF-2/Texas Red dextran ratio assay of NO secretion into ASL; assay type: cell-based; conditions: 1 mM PTC, PAV/PAV
Procedure: (§1) For measurement of NO secretion, a protocol was developed in which a solution of Texas Red Dextran (an NO-insensitive cell-impermeant dye) and DAF-2 (an NO-sensitive cell-impermeant dye) were added in a small volume (10 μl) to the apical surface of the cultures. The ratio of DAF-2/Texas Red fluorescence was recorded using wide-field epifluorescence microscopy at baseline and after incubation at 37° C. for the indicated times. This experiment was validated by addition of DETA-NONOate, an NO donor that releases 2 moles of NO per mole of parent molecule. DETA-NONOate was added on top of ALI cultures in pH 5 buffer to stimulate rapid decomposition. Imaging was performed using a Nikon 20×0.5 NA PlanFluor objective and 100 W mercury arc lamp with filters from Chroma Technologies (Rockingham, Vt.). Green filter contained a 480/40 nm band-pass [bp] excitation filter (reported as max transmission wavelength/filter width at half maximal transmission), a 505 nm dichroic mirror, and a 535/40 nm by emission filter. Red filter set contained a 560/40 nm by excitation filter, 595 dichroic mirror, and 630/60 nm by emission filter.
(§2) We also utilized a fluorescence-based assay to measure NO diffusion into the ASL. The apical surface of cultures was overlaid with a small volume (10 μl) of phosphate-buffered saline with or without 1 mM PTC containing 2 spectrally distinct cell-impermeant dyes, the NO-sensitive 4,5-diaminofluorescence diacetate (DAF-2) and the NO-insensitive Texas Red dextran ([…] MW); a ratiometric measurement was used to eliminate any artifacts due to expansion or contraction of ASL volume. The ratio of DAF-2/Texas Red fluorescence was recorded by fluorescence microscopy after 5, 30 and 60 min incubations at 37° C. […] We utilized this assay to determine if exposure to Pseudomonas and their secretions was sufficient to cause epithelial cells to produce NO with subsequent diffusion into the ASL. Log-phase cultures of PAO1 and PAO-JP2 were resuspended in PBS and placed on the ALI surface in the presence of DAF-2 and Texas Red.

T2R38 [8] = target: T4, T2R38; test: as above; assay type: cell-based; conditions: 1 mM PTC, AVI/AVI
Procedure: as §1, §2

T2R38 [9] = test: NO metabolites in airway surface liquid by chemiluminescence; assay type: cell-based, human; conditions: 1 mM PTC; 20 min
Procedure: (§3) ASL from stimulated and unstimulated cultures (20 μL total volume for each) was collected after 20 min at 37° C. and frozen at −20° C. and protected from light until analysis. NO-metabolites were evaluated by reduction of metabolites with acidified-heated vanadium to nitric oxide and detection of nitric oxide by chemiluminescence on the Sievers 280 nitric oxide analyzer. Samples were injected into a custom made purge container containing 0.05 M Vanadium chloride in 1 N HCl heated to 95° C. The reading in millivolts was compared to a standard curve generated by injecting standard solutions of nitrate. This reductive method reports on the total levels of nitrate, nitrite, N-nitroso and iron-nitrosyl adducts as well as low molecular weight and protein S-nitrosothiol adducts.
(§4) The antibacterial properties of NO help maintain the sterility of the sinonasal airways. […] NO diffusion into the ASL was quantified by measuring NO-derived byproducts in 20 μL of airway surface liquid from cultures stimulated with 1 mM PTC (or PBS alone) for 20 min using reductive chemistries coupled with chemiluminescence detection of nitric oxide (FIG. 20A). ASL levels of NO metabolites (nitrate, nitrite, N-nitroso and iron-nitrosyl adducts as well as low molecular weight and protein S-nitrosothiol adducts) were not different in unstimulated PAV/PAV and AVI/AVI cultures (0.41±0.13 pmol/μL for PAV/PAV and 0.66±0.33 for AVI/AVI; n.s. vs PAV/PAV). However, the increase observed in PTC-stimulated PAV/PAV cultures was >2-fold larger than that observed in AVI/AVI cultures (FIG. 20A). In PTC stimulated cultures, NO metabolites in the ASL over 20 minutes were 4.37 pmol/μL (PAV/PAV; P<0.001 vs unstimulated PAV/PAV) and 1.72 pmol/μL (AVI/AVI; P<0.01 vs stimulated PAV/PAV; n.s. vs unstimulated AVI/AVI).

T2R38 [10] = target: T3, T2R38; test: as above; assay type: cell-based; conditions: 1 mM PTC; PAV/PAV
Procedure: as §3, §4

T2R38 [11] = target: T4, T2R38; test: as above; assay type: cell-based; conditions: 1 mM PTC; AVI/AVI
Procedure: as §3, §4

CC1=C[C@H]2[C@H]3[C@H](C(C)=C4[C@H]5OC(=O)[C@@H](C)[C@@H]5CC[C@](C)(O)[C@@H]43)[C@@]13[C@@H]2[C@@](C)(O)CC[C@H]1[C@H](C)C(=O)O[C@@H]13 [absinthin]
Beta-defensin 2 secretion (beta-defensin 2): induced | Growth of bacteria mixed with ASL from stimulated cultures (Pseudomonas aeruginosa): 0 CFUs | Effect of solutions alone on growth (Pseudomonas aeruginosa): had no effect | Growth of bacteria mixed with ASL from stimulated cultures [1]: 0 CFUs | Effect of solutions alone on growth [1]: had no effect | Bactericidal effect of ASL from treated nasal cultures (Kleibsiella pneumoniae): significant bactericidal effects

CC[N+](CC)(CC(=O)Nc1c(C)cccc1C)Cc1ccccc1 [denatonium, denatonium benzoate]
Peak Fluo-4 fluorescence (ΔF/F) (PAV-TAS2R38): 1±2% | Peak Fluo-4 fluorescence (ΔF/F) (AVI-TAS2R38): 3±1% | Beta-defensin 2 secretion (beta-defensin 2): induced | Growth of bacteria mixed with ASL from stimulated cultures (Pseudomonas aeruginosa): 0 CFUs | Effect of solutions alone on growth (Pseudomonas aeruginosa): had no effect | Growth of bacteria mixed with ASL from stimulated cultures [1]: 0 CFUs | Effect of solutions alone on growth [1]: had no effect | Fluo-4 fluorescence on stimulation with denatonium (nasal epithelial cells): increases fluo-4 fluorescence | Bactericidal effect of ASL from treated nasal cultures (Kleibsiella pneumoniae): significant bactericidal effects | NO production with non-T2R38 bitter ligands (T2R38 [2]): did not stimulate NO production

NC(=S)Nc1ccccc1 [PTC, phenylthiocarbamide]
Peak Fluo-4 fluorescence (ΔF/F) (PAV-TAS2R38): 114±4% | Ca2+ responses in acutely dissociated sinonasal ciliated cells [3]: occurred | Fluo-4 fluorescence after 5 min PTC (T2R38 [4]): 1.14±0.035 | Fluo-4 fluorescence after 5 min PTC (T2R38 [5]): 1.30±0.027 | Fluo-4 fluorescence after 5 min PTC (T2R38 [6]): 1.06±0.02 | Peak Fluo-4 fluorescence (ΔF/F) (AVI-TAS2R38): −4±1% | DAF-2/Texas Red Dextran fluorescence ratio after PTC stimulation (T2R38 [7]; 5 min): 0.46±0.10 | DAF-2/Texas Red Dextran fluorescence ratio after PTC stimulation (T2R38 [7]; 30 min): 1.55±0.17 | DAF-2/Texas Red Dextran fluorescence ratio after PTC stimulation (T2R38 [7]; 60 min): 2.52±0.76 | DAF-2/Texas Red Dextran fluorescence ratio after PTC stimulation (T2R38 [8]; 5 min): 0.54±0.1 | DAF-2/Texas Red Dextran fluorescence ratio after PTC stimulation (T2R38 [8]; 30 min): 0.71±0.1 | DAF-2/Texas Red Dextran fluorescence ratio after PTC stimulation (T2R38 [8]; 60 min): 0.90±0.3 | Increase in NO metabolites, PTC-stimulated PAV/PAV relative to AVI/AVI cultures (T2R38 [9]): > 2 fold | NO metabolites in the ASL over 20 minutes (T2R38 [10]): 4.37 pmol/µL | NO metabolites in the ASL over 20 minutes (T2R38 [11]): 1.72 pmol/µL
